Patent US20100130725A1, “METHODS FOR CHARACTERIZING MOLECULES” (priority 2008, published 2010)
Values joined by “and” are separate entries in the source; they are usually repeats but may differ in a detail not shown here. Equal entries are not always repeated. Where two headings read alike, the source gives them in different places. Ends that are not written are not given here.

How the values were obtained:
Type in all cases: cell-based, human
A549 cells [1] = assay: Epic RWG biosensor DMR assay, agonist mode (primary profile), A549 cells; settings: for DMR signal triggered by the ligand (primary profile), second ligand panel: FIG. 8: 40 μM pinacidil, 250 μg/ml poly(I:C), 8 μM PMA, 16 μM forskolin
Experimental: All cell lines were obtained from American Type Cell Culture (Manassas, Va.). The cell culture medium was as follows: Dulbecco's modified Eagle's medium (DMEM) supplemented with 10% fetal bovine serum (FBS), 4.5 g/liter glucose, 2 mM glutamine, and antibiotics for human epidermoid carcinoma A431 and human lung carcinoma A549.
Cells were typically grown using ˜1 to 2×10^4 cells per well at passage 3 to 15 suspended in 50 μl of the corresponding culture medium in the biosensor microplate, and were cultured at 37° C. under air/5% CO2 for ˜1 day. Except for A431, which was subject to ˜20 hr starvation through continuous culture in the serum-free DMEM, the other cell types were directly assayed without starvation. The confluency for all cells at the time of assays was ˜95% to 100%.
Epic® wavelength interrogation system (Corning Inc., Corning, N.Y.) was used for whole cell sensing. This system consists of a temperature-control unit, an optical detection unit, and an on-board liquid handling unit with robotics. The detection unit is centered on integrated fiber optics, and enables kinetic measures of cellular responses with a time interval of ˜15 sec.
The RWG biosensor is capable of detecting minute changes in local index of refraction near the sensor surface. Since the local index of refraction within a cell is a function of density and its distribution of biomass (e.g., proteins, molecular complexes), the biosensor exploits its evanescent wave to non-invasively detect ligand-induced dynamic mass redistribution in native cells. The evanescent wave extends into the cells and exponentially decays over distance, leading to a characteristic sensing volume of ˜150 nm, implying that any optical response mediated through the receptor activation only represents an average over the portion of the cell that the evanescent wave is sampling. The aggregation of many cellular events downstream the receptor activation determines the kinetics and amplitudes of a ligand-induced DMR.
(§1) For biosensor cellular assays, molecule solutions were made by diluting the stored concentrated solutions with the HBSS (1× Hanks balanced salt solution, plus 20 mM Hepes, pH 7.1), and transferred into a 384 well polypropylene molecule storage plate to prepare a molecule source plate. Both molecule and marker source plates were made separately when a two-step assay was performed. In parallel, the cells were washed twice with the HBSS and maintained in 30 μl of the HBSS to prepare a cell assay plate. Both the cell assay plate and the molecule and marker source plate(s) were then incubated in the hotel of the reader system. After ˜1 hr of incubation the baseline wavelengths of all biosensors in the cell assay microplate were recorded and normalized to zero. Afterwards, a 2 to 10 minute continuous recording was carried out to establish a baseline, and to ensure that the cells reached a steady state. Cellular responses were then triggered by pipetting 10 μl of the marker solutions into the cell assay plate using the on-board liquid handler.
First, a panel of ligands targeting GPCRs, each at 10 μM concentration, was chosen, and examined their actions on the A549 cells using DMR measurements with the Epic® system. The ligand panel included the four P2Y agonists ADP, […], UTP and UDP, the adenosine receptor agonist adenosine, the calcium sensing receptor agonist spermine, the histamine receptor agonist histamine, the adrenergic receptor agonist epinephrine, the free fatty acid receptor agonist elaidic acid, the lipoxin receptor agonist lipoxin A4, the bradykinin receptor agonist bradykinin, the adrenodullin receptor agonist adrenodullin, the PAR1 agonist SFLLR-amide, the angiotensin receptor agonist angiotensin, the neuropeptide Y receptor agonist neuropeptide Y, and the PAR2 agonist SLIGKV-amide.
Next, a second ligand panel was chosen, and examined their actions on the A549 cells using DMR measures with the Epic® system.

quiescent A431 cells = assay: Epic DMR two-step assay, antagonist mode: modulation of marker-induced DMR signals in quiescent A431 cells
Experimental: as §1
Next, the target specificity and signaling pathway of EGF was probed using a second set of assays.
A first panel of markers was contacted with quiescent A431 cells at concentrations close to each of the marker's EC80 or EC100, and DMR measurements were obtained with and EPIC® system. This panel of markers was selected from a library of markers identified in A431 cells using Epic® cellular assays. This panel included epidermal growth factor (EGF), epinephrine, nicotinic acid, and histamine. Each of these markers leads to a wide array of cell signaling. […] Each DMR signal represents an averaged response of 4 replicates.
A DMR index was generated for four ligand molecules. Quiescent A431 and proliferating A549 cells were separately exposed to the ligand molecules for about 1 hr to generate their primary profiles, followed by stimulation with each marker at a fixed concentration (as mentioned in FIGS. 7 and 8) for another 1 hr or so to generate secondary profiles of the molecule against the panels of markers in both types of cells. Next, one or more specific DMR parameters were chosen as a readout for plotting the DMR index of the molecule. For the pinacidil DMR response in A549, the amplitude of the N-DMR (i.e., the amplitude 30 min after stimulation) was chosen. For the poly(I:C) DMR response in A549, the amplitude of the late DMR (i.e., the amplitude 50 min after stimulation) was chosen. For the PMA response in A549, the late DMR amplitude (i.e., the amplitude 50 min after stimulation) was chosen.

A549 cells [2] = assay: Epic DMR two-step assay, antagonist mode: modulation of marker-induced DMR signals in A549 cells; settings: molecule 10 μM
Experimental: as §1
A second panel of markers was contacted with A549 cells at concentrations close to each of the marker's EC80 or EC100, and DMR measurements were obtained with and EPIC® system. This panel included poly(I:C), SLIGKV-amide, pinacidil, PMA, histamine, and forskolin. Each of these markers also leads to a wide array of cell signaling. Using Epic® cellular assays in conjunction with chemical biology and cell biology approach similar to the EGFR DMR mentioned above, we have determined the pathway(s) and network interaction(s) that is accounted for each marker-induced DMR signal in A549 cells. The main observations are summarized below. Poly(I:C) is an agonist for endogenous Toll-like receptor(s) in A549, whose activation leads to IKK pathway and AKT pathway. SLIGKV-amide is an agonist for endogenous protease activated receptor subtype 2 (PAR2) in A549, whose activation leads to Gq-, Gi- and G12/13-mediated signaling. Pinacidil is an opener for endogenous ATP-sensitive potassium (KATP) ion channel in A549, whose activation leads to Rho- and JAK-mediated signaling. PMA is an activator for protein kinase C (PKC), whose activation leads to PKC pathway and degranulation. Histamine is a natural agonist for endogenous histamine receptors (dominantly H1R, and possibly H3R), whose activation leads to dual signaling, possibly through Gq and Gi mediated signaling in A549. Forskolin is an activator for adenylyl cyclases, whose activation leads to cAMP-PKA pathway in A549. […] Each DMR signal represents an averaged response of 4 replicates.
A DMR index was generated for four ligand molecules. Quiescent A431 and proliferating A549 cells were separately exposed to the ligand molecules for about 1 hr to generate their primary profiles, followed by stimulation with each marker at a fixed concentration (as mentioned in FIGS. 7 and 8) for another 1 hr or so to generate secondary profiles of the molecule against the panels of markers in both types of cells. Next, one or more specific DMR parameters were chosen as a readout for plotting the DMR index of the molecule. For the pinacidil DMR response in A549, the amplitude of the N-DMR (i.e., the amplitude 30 min after stimulation) was chosen. For the poly(I:C) DMR response in A549, the amplitude of the late DMR (i.e., the amplitude 50 min after stimulation) was chosen. For the PMA response in A549, the late DMR amplitude (i.e., the amplitude 50 min after stimulation) was chosen. For the SLIGKV-amide DMR response in A549, the P-DMR amplitude (i.e., the amplitude 20 min after stimulation) was chosen. For the forskolin response in A549 cells, the P-DMR amplitude (i.e., the amplitude 50 min after stimulation) was chosen. For the histamine response in A549, both the early DMR amplitude (i.e., amplitude 10 min after stimulation) and the late response (i.e., the amplitude 30 min after stimulation) were chosen. […]

[3] = quiescent A431, ligand 10 μM, about 1 hr pretreatment, 32 nM EGF

Nc1ncnc2c1ncn2[C@@H]1O[C@H](COP(=O)(O)OP(=O)(O)O)[C@@H](O)[C@H]1O [ADP]
DMR signal triggered by the ligand (primary profile) (A549 cells [1]; A549 cells, ligand 10 μM): robust DMR signals

COc1cc2ncnc(Nc3cccc(Cl)c3)c2cc1OC [AG1478]
modulation of the EGF-induced DMR signal (quiescent A431 cells; [3]): almost completely blocked

Nc1ncnc2c1ncn2[C@@H]1O[C@H](COP(=O)(O)OP(=O)(O)OP(=O)(O)O)[C@@H](O)[C@H]1O [AT]
DMR signal triggered by the ligand (primary profile) (A549 cells [1]; A549 cells, ligand 10 μM): robust DMR signals

CNCCNS(=O)(=O)c1cccc2cnccc12 [H8]
modulation of the epinephrine response (quiescent A431 cells; A431, molecule 10 μM): less effective at attenuating | modulation of the histamine response (quiescent A431 cells; A431, molecule 10 μM): less effective at attenuating

O=S(=O)(c1cccc2cnccc12)N1CCCNCC1 [HA1077]
modulation of the PMA response (A549 cells [2]): significantly potentiated | modulation of the histamine response (A549 cells [2]): significantly potentiated | modulation of the pinacidil response (A549 cells [2]): almost completely attenuated | modulation of PMA-induced DMR response (late DMR amplitude) (A549 cells [2]; 8 μM PMA, amplitude 50 min after stimulation): +36% | modulation of SLIGKV-amide-induced DMR response (P-DMR amplitude) (A549 cells [2]; 8 μM SLIGKV-amide, amplitude 20 min after stimulation): +22% | modulation of histamine-induced DMR response (early P-DMR) (A549 cells [2]; 10 μM histamine, amplitude 10 min after stimulation): +26% | modulation of histamine-induced DMR response (late P-DMR) (A549 cells [2]; 10 μM histamine, amplitude 30 min after stimulation): +55% | modulation of forskolin-induced DMR response (P-DMR amplitude) (A549 cells [2]; 16 μM forskolin, amplitude 50 min after stimulation): +18% | modulation of poly(I:C)-induced DMR response (late DMR amplitude) (A549 cells [2]; 250 μg/ml poly(I:C), amplitude 50 min after stimulation): +18% | modulation of pinacidil-induced DMR response (N-DMR amplitude) (A549 cells [2]; ~1 hr pretreatment, 40 μM pinacidil, amplitude 30 min after stimulation): −86% and −95%

CCCCCCCCCCCCCC(=O)O[C@@H]1[C@@H](C)[C@@]2(O)[C@@H](C=C(CO)C[C@]3(O)C(=O)C(C)=C[C@@H]23)[C@@H]2C(C)(C)[C@]12OC(C)=O [PMA, Phorbol 12-myristate 13-acetate]
DMR signal triggered by the ligand (primary profile), second ligand panel (A549 cells [1]; A549 cells): robust DMR signals

N#CC(=C(/N)Sc1ccccc1N)/C(C#N)=C(\N)Sc1ccccc1N [U0126]
modulation of the EGF-induced DMR signal (quiescent A431 cells): significantly and selectively attenuated the N-DMR and the RP-DMR signals

O=c1ccn([C@@H]2O[C@H](COP(=O)(O)OP(=O)(O)O)[C@@H](O)[C@H]2O)c(=O)[nH]1 [UDP]
DMR signal triggered by the ligand (primary profile) (A549 cells [1]; A549 cells, ligand 10 μM): robust DMR signals

O=c1ccn([C@@H]2O[C@H](COP(=O)(O)OP(=O)(O)OP(=O)(O)O)[C@@H](O)[C@H]2O)c(=O)[nH]1 [UTP]
DMR signal triggered by the ligand (primary profile) (A549 cells [1]; A549 cells, ligand 10 μM): robust DMR signals

Nc1ncnc2c1ncn2[C@@H]1O[C@H](CO)[C@@H](O)[C@H]1O [adenosine]
DMR signal triggered by the ligand (primary profile) (A549 cells [1]; A549 cells, ligand 10 μM): robust DMR signals

CCCCCCCC/C=C/CCCCCCCC(=O)O [elaidic acid]
DMR signal triggered by the ligand (primary profile) (A549 cells [1]; A549 cells, ligand 10 μM): robust DMR signals

CNC[C@H](O)c1ccc(O)c(O)c1 [epinephrine]
DMR signal triggered by the ligand (primary profile) (A549 cells [1]): robust DMR signals

NCCc1c[nH]cn1 [histamine]
DMR signal triggered by the ligand (primary profile) (A549 cells [1]; A549 cells, ligand 10 μM): robust DMR signals

CCCCC[C@H](O)/C=C/C=C\C=C\C=C\[C@@H](O)[C@@H](O)CCCC(=O)O [lipoxin A4]
DMR signal triggered by the ligand (primary profile) (A549 cells [1]; A549 cells, ligand 10 μM): robust DMR signals

CC(N/C(=N\C#N)Nc1ccncc1)C(C)(C)C (stereo not shown) [pinacidil]
DMR signal triggered by the ligand (primary profile), second ligand panel (A549 cells [1]; A549 cells): robust DMR signals

CC(=O)c1c(O)c(C)c(O)c(Cc2c(O)c3c(c(C(=O)/C=C/c4ccccc4)c2O)OC(C)(C)C=C3)c1O [rottlerin]
modulation of the EGF-induced DMR signal (quiescent A431 cells; [3]): specifically caused the truncation of the early P-DMR event, as well as part of the early N-DMR event

NCCCNCCCCNCCCN [spermine]
DMR signal triggered by the ligand (primary profile) (A549 cells [1]; A549 cells, ligand 10 μM): robust DMR signals

BML-265
modulation of the EGF-induced DMR signal (quiescent A431 cells; [3]): almost completely blocked

SFLLR-amide
DMR signal triggered by the ligand (primary profile) (A549 cells [1]; A549 cells, ligand 10 μM): robust DMR signals

SLIGKV-NH2
DMR signal triggered by the ligand (primary profile) (A549 cells [1]; A549 cells, ligand 10 μM): robust DMR signals

adrenodullin: adrenodullin receptor agonist (YRQSMNNFQGLRSFGCRFGTCTVQKLAHQIYQFTDKDKDNVAPRSKISPQGY; ends and bridges not checked; cysteine pairing not given here; UniProt P35318 95-146, looked up)
DMR signal triggered by the ligand (primary profile) (A549 cells [1]; A549 cells, ligand 10 μM): robust DMR signals

angiotensin
DMR signal triggered by the ligand (primary profile) (A549 cells [1]; A549 cells, ligand 10 μM): robust DMR signals

neuropeptide Y
DMR signal triggered by the ligand (primary profile) (A549 cells [1]; A549 cells, ligand 10 μM): robust DMR signals

poly(I:C)
DMR signal triggered by the ligand (primary profile), second ligand panel (A549 cells [1]; A549 cells): robust DMR signals
